Tested on: TNBS colitis
Assay: TNBS colitis in mice
Assay type: in vivo
Settings: for overall score: overall efficacy
Experimental: Male C57BL/6J mice 8-10 weeks old were purchased from The Jackson Laboratory (Sacramento, CA, USA). Mice were housed 4 per cage, maintained on a 12:12 hour light-dark cycle and given access to food and water ad libitum. Following an acclimatization period of 3 to 5 days, trinitrobenzene sulfonic acid (TNBS, Millipore Sigma, St. Louis, MO, USA) colitis was induced by intracolonic (i.c.) injection of 0.05 ml TNBS solution (5 mg in 40% ethanol) via a polyethylene cannula (BD Intramedic PE-20 tubing, Thermo Fisher Scientific, Santa Clara, CA, USA) inserted 3.5 cm from the anal verge under isoflurane anesthesia (4% in O2 induction, 2.5-3% maintenance). Control mice received an injection of 40% ethanol (0.05 ml, i.c.). To test the effectiveness of the HDAC analogs, mice received a daily injection (0.1 ml, i.c.) of a selective HDAC class II inhibitor analog (50 mg/kg MJK001-013) or vehicle (5% dimethyl sulfoxide, Millipore Sigma) beginning one day prior to TNBS colitis induction (day −1) for a period of 5 days. Separate groups of mice received HDAC inhibitors or vehicle administered by daily oral gavage (50 mg/kg, 0.25 ml, p.o.). All analogs tested were first dissolved in dimethyl sulfoxide (DMSO) with rapid vortexing and subsequent dilution to 5% in sterile phosphate buffered saline (PBS; Gibco, Thermo Fisher Scientific). Vehicle contained 5% DMSO in sterile PBS. Prior to use, all solids were stored in amber (light-blocking) storage vials at 4° C. On the first day of administration, stock solutions were prepared, aliquoted and stored at −20° C. for daily use. Upon thawing, each aliquot was vortexed prior to intracolonic injection (via a polyethylene cannula) or oral gavage (20 ga×38 mm, Instech, Thermo Fisher Scientific). Following all in vivo experiments, animals were euthanized on day 4 by CO2 inhalation and cervical dislocation and the distal colons removed for further study.
Disease severity was assessed by weight loss and measurement of colon length and determination of clinical and histological damage scores on day 4 of the protocol. Briefly, clinical scores were calculated on a scale of 0-3 for degree of weight loss, bleeding, stool consistency and presence of rectal prolapse. Sections of colon (5 μm) fixed in 10% formalin, paraffin-embedded and stained with hematoxylin and eosin (H&E) were used for histological scoring using an AxioImager. Z1 microscope equipped with AxioVision software version 4.6 (Zeiss, Jena, Germany). Scoring was performed by two independent investigators blinded to the treatment conditions and resulting scores averaged. Scores were assigned based on the degree of crypt damage (0-4), polymorphonuclear neutrophil (PMN) infiltrate (0-3), erosion (0-3), and edema (0-3).
Statistical analyses were performed using GraphPad Prism (Version 5.0a; GraphPad Software, La Jolla, CA, USA). Differences were determined by unpaired t-test, 1-way analysis of variance, or a 2-way analysis of variance with Tukey's post-test. A p value <0.05 was considered to be statistically significant. Data presented are means±SEM for n animals.
Novel chemical HDAC inhibitors were developed aiming to target specific isoforms of the HDAC Class IIA members. Overall, as shown above, compounds have been synthesized, named MJK-001, -002, -003, -004, -005, -006, -007, -008, -009, -010, -011, -012 & -013. The effect of selective HDAC class IIA isoform inhibition during development of colitis in mice in vivo during TNBS administration was assessed. This mouse model is known to recapitulate many features of human Crohn's Disease. Mice received either an intracolonic (i.c.) injection or oral delivery (p.o.) of the MJK compounds once daily for a period of 5 days and health status, weight loss, and disease activity were monitored. Mice (male C57BL/6J, 8-10 wks old) are weighed and monitored daily. On the final day, blood, feces, and colonic samples for RNA, protein and histology are collected for downstream analysis. […]

[1] = i.c. administration, 50 mg/kg daily for 5 days, day 4, vs vehicle-treated mice, 50 mg/kg
[2] = i.c. administration, 50 mg/kg daily for 5 days, day 4, vs vehicle-treated mice, listed as MJK-001, 50 mg/kg
[3] = i.c. administration, 50 mg/kg daily for 5 days, day 4, vs vehicle-treated mice, listed as MJK-004, 50 mg/kg
[4] = i.c. administration, 50 mg/kg daily for 5 days, day 4, vs vehicle-treated mice, hydrochloride, 50 mg/kg
[5] = i.c. administration, 50 mg/kg daily for 5 days, day 4, vs vehicle-treated mice, listed as MJK-008, hydrochloride, 50 mg/kg
[6] = oral administration (p.o., 50 mg/kg daily)

In the case of `Cn1c(/C=C/C(=O)NO)ccc1/C=C/C(=O)c1cccc(F)c1` [MJK001, (E)-3-(5-((E)-3-(3-Fluorophenyl)-3-oxoprop-1-en-1-yl)-1-methyl-1H-pyrrol-2-yl)-N-hydro-xyacrylamide], the histological score (i.c. administration, 50 mg/kg daily for 5 days, day 4, vs vehicle-treated mice) is reported as “♦♦”, the clinical score [1] is reported as “♦♦” and the colon length [1] is reported as “♦♦”. The clinical score [2] was “statistical significance in the reduction of the clinical score” and the colon length [2] was “increase of colon length”.
For `Cn1c(/C=C/C(=O)NO)ccc1/C=C/C(=O)c1cccs1` [MJK004, (E)-N-hydroxy-3-(1-methyl-5-((E)-3-oxo-3-(thiophen-2-yl)prop-1-en-1-yl)-1H-pyrrol-2-yl)acrylamide], the clinical score [1] was “♦♦”, the colon length [1] was “ns” and the clinical score [3] was “reduction in clinical scoring”. For the same compound, the colon length [3] was “did not alter colon length”.
With `Cn1c(/C=C/C(=O)NO)ccc1/C=C/C(=O)c1cccnc1` [MJK006, (E)-N-hydroxy-3-(1-methyl-5-((E)-3-oxo-3-(pyridin-3-yl)prop-1-en-1-yl)-1H-pyrrol-2-yl)acrylamide] the clinical score [1] was “♦♦”, the colon length [1] was “♦♦” and the histological score [1] was “♦♦♦”. For the same compound, the histological score (i.c. administration, 50 mg/kg daily for 5 days, day 4, vs vehicle-treated mice, listed as MJK-006, 50 mg/kg) was “significant differences” and the overall score (i.c. administration) was “substantial effect on suppressing TNBS-induced colitis”.
For `Cl.Cn1c(/C=C/C(=O)NO)ccc1/C=C/C(=O)c1cccnc1` [MJK008, (E)-N-Hydroxy-3-(1-methyl-5-((E)-3-oxo-3-(pyridin-3-yl)prop-1-en-1-yl)-1H-pyrrol-2-yl)ac-rylamide hydrochloride], the clinical score [4] was “♦♦”, the colon length [4] was “♦” and the histological score [4] was “♦♦♦”. For the same compound, the clinical score [5] was “decreasing the clinical and histological score”, the colon length [5] was “significant effect in preserving colon length” and the histological score [5] was “decreasing the clinical and histological score”. For the same compound, the overall score (i.c. administration, hydrochloride) was “substantial effect on suppressing TNBS-induced colitis”, the clinical score [6] was “highly efficient in reducing the clinical score” and the colon length [6] was “preserving colon length”. The histology score [6] was “decreasing the histology score”.
